Results as given in PMC10409285 (PLOS Pathogens, 2023).
Values joined by “and” are separate entries in the source; they are usually repeats but may differ in a detail not shown here. Identical values can stand only once. No end group written: not given here.

These compounds were tested against DP4.1 (HLA-DPA1*01:03/DPB1*04:01) (Homo sapiens, UniProt P04440+P20036) (assay: fluorescence polarization competition binding assay, DP4.1). Conditions: not given.

Compound | IC50
CC[C@H](C)[C@H](NC(=O)[C@H](C)NC(=O)[C@H](CO)NC(=O)[C@@H](N)CCCNC(=N)N)C(=O)N[C@@H](CCC(=O)O)C(=O)N[C@@H](CC(=O)O)C(=O)N[C@@H](CC(C)C)C(=O)N[C@@H](CC(C)C)C(=O)N[C@@H](Cc1ccccc1)C(=O)N[C@@H](CC(=O)O)C(=O)N[C@@H](CCCCN)C(=O)N[C@H](C(=O)N[C@@H](CCCCN)C(=O)N[C@@H](CC(C)C)C(=O)N[C@@H](CO)C(=O)O)C(C)C [Peptide P4] | 2.99 µM
CC[C@H](C)[C@H](N)C(=O)N[C@@H](Cc1c[nH]cn1)C(=O)N[C@@H](Cc1ccccc1)C(=O)N[C@@H](CO)C(=O)N[C@@H](Cc1ccc(O)cc1)C(=O)N[C@H](C(=O)N1CCC[C@H]1C(=O)N[C@H](C(=O)N[C@@H](CCCCN)C(=O)N[C@@H](Cc1ccc(O)cc1)C(=O)N[C@H](C(=O)N[C@H](C(=O)N[C@@H](C)C(=O)N[C@@H](CCCNC(=N)N)C(=O)N[C@H](C(=O)N[C@@H](CO)C(=O)N1CCC[C@H]1C(=O)NCC(=O)O)C(C)C)[C@@H](C)O)C(C)C)[C@@H](C)O)C(C)C [Peptide P7] | 9.44 µM
CC[C@H](C)[C@H](N)C(=O)N[C@H](C(=O)N[C@H](C(=O)NCC(=O)N[C@@H](Cc1ccc(O)cc1)C(=O)N[C@@H](CCCNC(=N)N)C(=O)N[C@@H](Cc1ccccc1)C(=O)N[C@H](C(=O)N[C@@H](CC(N)=O)C(=O)N[C@@H](Cc1ccccc1)C(=O)N[C@@H](CCC(=O)O)C(=O)N1CCC[C@H]1C(=O)N[C@@H](Cc1ccccc1)C(=O)N[C@H](C(=O)O)[C@@H](C)O)[C@@H](C)O)[C@@H](C)O)[C@@H](C)O [Peptide P5] | < 1 µM and 0.3 µM
NRGRQFYEFYNDVKPP [Peptide P14] | 5.14 µM
CC(C)C[C@H](NC(=O)[C@H](CCC(=O)O)NC(=O)[C@H](CC(C)C)NC(=O)[C@H](CCCNC(=N)N)NC(=O)[C@H](CO)NC(=O)CNC(=O)[C@H](Cc1ccccc1)NC(=O)[C@H](Cc1ccccc1)NC(=O)[C@H](Cc1ccccc1)NC(=O)[C@H](C)NC(=O)CN)C(=O)N[C@@H](C)C(=O)N[C@@H](CCCCN)C(=O)N[C@H](C(=O)N[C@@H](CCC(N)=O)C(=O)N[C@@H](CC(N)=O)C(=O)O)C(C)C [Peptide P2] | 118 µM
YLAISNELLLTVPTK [Peptide P1] | < 1 µM and 0.41 µM

Same assay, conditions: fluorescence polarization competition; soluble DP4.1-Clip 250 nM, 25 nM Alexa488 oxytocinase probe peptide, 500 nM HLA-DM, 24 h 37°C; mean of two independent experiments; read-out: Mean IC50, DPA*01:03/DPB1*04:01

Compound | IC50 [µM]
CC[C@H](C)[C@H](NC(=O)[C@@H](NC(=O)[C@@H](N)CO)[C@@H](C)CC)C(=O)N[C@@H](C)C(=O)N[C@@H](Cc1ccc(O)cc1)C(=O)N[C@H](C(=O)N[C@@H](CCSC)C(=O)N[C@@H](CO)C(=O)N[C@@H](CC(C)C)C(=O)NCC(=O)N[C@@H](C)C(=O)N[C@@H](CCC(=O)O)C(=O)N[C@@H](CC(N)=O)C(=O)N[C@@H](CO)C(=O)N[C@H](C(=O)N[C@@H](C)C(=O)O)C(C)C)[C@@H](C)O [S#139 (CoV2)] | 292
CC(C)C[C@H](NC(=O)[C@H](Cc1ccccc1)NC(=O)[C@@H](N)C(C)C)C(=O)N[C@@H](Cc1c[nH]cn1)C(=O)N[C@H](C(=O)N[C@H](C(=O)N[C@@H](Cc1ccc(O)cc1)C(=O)N[C@H](C(=O)N1CCC[C@H]1C(=O)N[C@@H](C)C(=O)N[C@@H](CCC(N)=O)C(=O)N[C@@H](CCC(=O)O)C(=O)N[C@@H](CCCCN)C(=O)N[C@@H](CC(N)=O)C(=O)N[C@@H](Cc1ccccc1)C(=O)N[C@H](C(=O)O)[C@@H](C)O)C(C)C)[C@@H](C)O)C(C)C [S#213 (CoV2)] | 242
CC[C@H](C)[C@H](NC(=O)[C@H](CO)NC(=O)[C@H](CCC(N)=O)NC(=O)[C@H](CO)NC(=O)[C@H](C)NC(=O)[C@@H](NC(=O)[C@@H](N)CO)C(C)C)C(=O)N[C@H](C(=O)N[C@@H](C)C(=O)N[C@@H](Cc1ccc(O)cc1)C(=O)N[C@H](C(=O)N[C@@H](CCSC)C(=O)N[C@@H](CO)C(=O)N[C@@H](CC(C)C)C(=O)NCC(=O)N[C@@H](C)C(=O)O)[C@@H](C)O)[C@@H](C)CC [S#138 (CoV2)] | 438
